Test results from US10065970B2 (Genentech, Inc., priority 2015, dated 2018).
Where a name gives a salt, the structure may show the parent alone.

Target: PI3Kα (alpha) (Homo sapiens (Human), UniProt P42336)
Assay: p110α (alpha) PI3K Binding Assay (ADP-Glo lipid kinase reaction)
Format: biochemical
Details: PI3K alpha 0.2 nM, ATP 40 μM, PIP2:3PS 50 μM, 120 min, room temperature; Ki by Morrison Equation; read-out: PI3Kα-(alpha) ATP (Ki) micromolar
Outline: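 Enzyme with PIP2:3PS lipid substrate and ATP/MgCl2 in 50 mM HEPES, 50 mM NaCl, 3 mM MgCl2, 0.01% BSA, 1% DMSO, 120 min at room temperature. ADP formed detected by ADP-Glo luminescence. Ki from 10-point dose-response curves via the Morrison equation.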

Sequence of PI3Kα (alpha) (P42336 whole entry): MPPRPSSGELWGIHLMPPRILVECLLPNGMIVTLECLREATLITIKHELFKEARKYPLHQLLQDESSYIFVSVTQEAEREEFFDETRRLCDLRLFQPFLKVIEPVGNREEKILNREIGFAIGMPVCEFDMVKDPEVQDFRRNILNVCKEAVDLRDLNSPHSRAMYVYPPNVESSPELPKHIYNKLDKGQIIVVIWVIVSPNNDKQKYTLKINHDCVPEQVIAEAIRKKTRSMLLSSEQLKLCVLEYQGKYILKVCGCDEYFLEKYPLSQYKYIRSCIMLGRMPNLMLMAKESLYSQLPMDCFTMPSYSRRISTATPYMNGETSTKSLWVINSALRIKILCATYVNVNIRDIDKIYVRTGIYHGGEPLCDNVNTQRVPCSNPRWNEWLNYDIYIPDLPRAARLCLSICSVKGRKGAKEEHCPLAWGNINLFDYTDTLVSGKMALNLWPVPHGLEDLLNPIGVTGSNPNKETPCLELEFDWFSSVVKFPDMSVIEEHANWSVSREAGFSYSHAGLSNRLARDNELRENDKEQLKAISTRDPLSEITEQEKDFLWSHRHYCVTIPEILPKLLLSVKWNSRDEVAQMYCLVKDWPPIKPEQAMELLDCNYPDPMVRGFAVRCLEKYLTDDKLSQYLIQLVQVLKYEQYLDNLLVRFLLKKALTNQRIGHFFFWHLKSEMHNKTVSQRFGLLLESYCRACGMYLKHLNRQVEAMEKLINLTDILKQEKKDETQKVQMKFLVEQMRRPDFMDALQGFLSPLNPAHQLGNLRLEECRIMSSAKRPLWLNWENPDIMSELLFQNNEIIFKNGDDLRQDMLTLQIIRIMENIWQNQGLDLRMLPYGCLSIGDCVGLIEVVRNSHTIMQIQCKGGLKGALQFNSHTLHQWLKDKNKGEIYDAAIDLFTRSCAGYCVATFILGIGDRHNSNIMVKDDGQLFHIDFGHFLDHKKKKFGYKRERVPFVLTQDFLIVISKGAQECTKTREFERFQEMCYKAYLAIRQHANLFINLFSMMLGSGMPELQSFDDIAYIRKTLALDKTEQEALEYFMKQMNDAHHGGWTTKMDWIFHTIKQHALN
Sequence of PI3Kα (alpha) (P27986 whole entry partner): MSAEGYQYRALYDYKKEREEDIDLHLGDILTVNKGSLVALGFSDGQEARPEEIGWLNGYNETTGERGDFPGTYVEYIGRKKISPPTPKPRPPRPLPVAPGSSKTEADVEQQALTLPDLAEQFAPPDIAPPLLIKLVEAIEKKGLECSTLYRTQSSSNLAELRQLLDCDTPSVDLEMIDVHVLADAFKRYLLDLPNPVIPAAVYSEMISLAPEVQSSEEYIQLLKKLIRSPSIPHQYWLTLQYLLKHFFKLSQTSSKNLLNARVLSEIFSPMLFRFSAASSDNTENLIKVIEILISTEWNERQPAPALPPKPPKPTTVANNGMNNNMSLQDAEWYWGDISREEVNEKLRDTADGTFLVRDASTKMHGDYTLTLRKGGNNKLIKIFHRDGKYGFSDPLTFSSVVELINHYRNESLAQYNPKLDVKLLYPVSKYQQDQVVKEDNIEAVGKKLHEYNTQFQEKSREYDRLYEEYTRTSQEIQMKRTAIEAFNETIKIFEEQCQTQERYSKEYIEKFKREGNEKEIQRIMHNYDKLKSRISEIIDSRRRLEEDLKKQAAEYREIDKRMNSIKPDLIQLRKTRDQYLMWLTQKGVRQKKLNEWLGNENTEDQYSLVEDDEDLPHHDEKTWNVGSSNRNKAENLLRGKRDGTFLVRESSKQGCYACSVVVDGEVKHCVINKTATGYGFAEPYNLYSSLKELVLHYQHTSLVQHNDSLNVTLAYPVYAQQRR

Structure (SMILES) | Ki
COc1cnc2cc(-c3nc4cc(N[C@H](C(N)=O)C5CC5)cc5c4n3CCCO5)ccc2n1 [Example 173, (S)-2-Cyclopropyl-2-((1-(2-methoxyquinoxalin-6-yl)-8,9-dihydro-7H-6-oxa-2,9a-diazabenzo[cd]azulen-4-yl)amino)acetamide] | 46.5 nM
N#CC1CCCN(c2nc3cc(NC(C(N)=O)C4CC4)cc4c3n2CCCO4)C1 [Example 174, (S)-2-[1-(3-Cyanopiperidin-1-yl)-8,9-dihydro-7H-6-oxa-2,9a-diazabenzo[cd]azulen-4-ylamino]-2-cyclopropylacetamide] | 262 nM
CS(=O)(=O)c1cncc(-c2nc3cc(N[C@H](C(N)=O)C4CC4)cc4c3n2CCCO4)c1 [Example 175, (S)-2-Cyclopropyl-2-((1-(5-(methylsulfonyl)pyridin-3-yl)-8,9-dihydro-7H-6-oxa-2,9a-diazabenzo[cd]azulen-4-yl)amino)acetamide] | 26 nM
NC(=O)[C@@H](Nc1cc2c3c(c1)nc(-c1ccnc4[nH]cnc14)n3CCCO2)C1CC1 [Example 176, (S)-2-((1-(3H-Imidazo[4,5-b]pyridin-7-yl)-8,9-dihydro-7H-6-oxa-2,9a-diazabenzo[cd]azulen-4-yl)amino)-2-cyclopropylacetamide] | 326 nM
NC(=O)[C@@H](Nc1cc2c3c(c1)nc(-c1ccnc4sccc14)n3CCCO2)C1CC1 [Example 177, (S)-2-Cyclopropyl-2-((1-(thieno[2,3-b]pyridin-4-yl)-8,9-dihydro-7H-6-oxa-2,9a-diazabenzo[cd]azulen-4-yl)amino)acetamide] | 234 nM
NC(=O)[C@@H](Nc1cc2c3c(c1)nc(-c1ccc4ncsc4c1)n3CCCO2)C1CC1 [Example 178, (S)-2-((1-(Benzo[d]thiazol-6-yl)-8,9-dihydro-7H-6-oxa-2,9a-diazabenzo[cd]azulen-4-yl)amino)-2-cyclopropylacetamide] | 32.2 nM
NC(=O)[C@@H](Nc1cc2c3c(c1)nc(N1CCc4nccnc4C1)n3CCCO2)C1CC1 [Example 179, (S)-2-Cyclopropyl-2-((1-(7,8-dihydropyrido[3,4-b]pyrazin-6(5H)-yl)-8,9-dihydro-7H-6-oxa-2,9a-diazabenzo[cd]azulen-4-yl)amino)acetamide] | 154 nM
NC(=O)[C@@H](Nc1cc2c3c(c1)nc(N1CCCOCC1)n3CCCO2)C1CC1 [Example 180, (S)-2-((1-(1,4-Oxazepan-4-yl)-8,9-dihydro-7H-6-oxa-2,9a-diazabenzo[cd]azulen-4-yl)amino)-2-cyclopropylacetamide] | 664 nM
CC(C)(C(N)=O)n1cc(-c2nc3cc(N[C@H](C(N)=O)C4CC4)cc4c3n2CCCO4)cn1 [Example 181, 2-(4-{4-[((S)-Carbamoylcyclopropylmethyl)amino]-8,9-dihydro-7H-6-oxa-2,9a-diazabenzo[cd]azulen-1-yl}pyrazol-1-yl)isobutyramide formic acid salt] | 195 nM
NC(=O)[C@@H](Nc1cc2c3c(c1)nc(N1CCCC(O)C1)n3CCCO2)C1CC1 (stereo partly drawn) [Example 182, (S)-2-Cyclopropyl-2-[1-(3-hydroxypiperidin-1-yl)-8,9-dihydro-7H-6-oxa-2,9a-diazabenzo[cd]azulen-4-ylamino]acetamide] | 398 nM
NC(=O)[C@@H](Nc1cc2c3c(c1)nc(-c1ccc4sc(N)nc4c1)n3CCCO2)C1CC1 [Example 184, (S)-2-((1-(2-Aminobenzo[d]thiazol-5-yl)-8,9-dihydro-7H-6-oxa-2,9a-diazabenzo[cd]azulen-4-yl)amino)-2-cyclopropylacetamide] | 0.491 nM
CNc1nc2cc(-c3nc4cc(N[C@@H](C)C(N)=O)cc5c4n3CCCO5)ccc2o1 [Example 185, (S)-2-((1-(2-(Methylamino)benzo[d]oxazol-5-yl)-8,9-dihydro-7H-6-oxa-2,9a-diazabenzo[cd]azulen-4-yl)amino)propanamide] | 2.01 nM
CNc1nc2cc(-c3nc4cc(N5CCC[C@H]5C(N)=O)cc5c4n3CCCO5)ccc2o1 [Example 186, (S)-1-(1-(2-(methylamino)benzo-[d]oxazol-5-yl)-8,9-dihydro-7H-6-oxa-2,9a-diazabenzo[cd]azulen-4-yl)pyrrolidine-2-carboxamide] | 6.93 nM
NC(=O)[C@@H](Nc1cc2c3c(c1)nc(-c1ccc4nc(N)cnc4c1)n3CCCO2)C1CC1 [Example 187, (S)-2-((1-(2-Aminoquinoxalin-6-yl)-8,9-dihydro-7H-6-oxa-2,9a-diazabenzo[cd]azulen-4-yl)amino)-2-cyclopropylacetamide] | 0.056 nM
NC(=O)c1ccc(-c2nc3cc(N[C@H](C(N)=O)C4CC4)cc4c3n2CCCO4)cc1F [Example 188, (S)-4-(4-((2-Amino-1-cyclopropyl-2-oxoethyl)amino)-8,9-dihydro-7H-6-oxa-2,9a-diazabenzo[cd]azulen-1-yl)-2-fluorobenzamide] | 81.4 nM
NC(=O)[C@@H](Nc1cc2c3c(c1)nc(-c1ccc(-c4nc[nH]n4)cc1)n3CCCO2)C1CC1 [Example 190, (S)-2-((1-(4-(1H-1,2,4-Triazol-3-yl)phenyl)-8,9-dihydro-7H-6-oxa-2,9a-diazabenzo[cd]azulen-4-yl)amino)-2-cyclopropylacetamide] | 0.15 nM
NC(=O)c1ccc(-c2nc3cc(N[C@H](C(N)=O)C4CC4)cc4c3n2CCCO4)cn1 [Example 191, (S)-5-(4-((2-Amino-1-cyclopropyl-2-oxoethyl)amino)-8,9-dihydro-7H-6-oxa-2,9a-diazabenzo[cd]azulen-1-yl)picolinamide] | 105 nM
Nc1nc2cc(-c3nc4cc(NC5CC(F)(F)C5)cc5c4n3CCCO5)ccc2o1 [Example 192, 1-(2-Aminobenzo[d]oxazol-5-yl)-N-(3,3-difluorocyclobutyl)-8,9-dihydro-7H-6-oxa-2,9a-diazabenzo[cd]azulen-4-amine] | 1.64 nM
Nc1nc2cc(-c3nc4c(F)c(Br)cc5c4n3CCCO5)ccc2o1 [Example 193, 5-(4-Bromo-3-fluoro-8,9-dihydro-7H-6-oxa-2,9a-diazabenzo[cd]azulen-1-yl)benzo[d]oxazol-2-amine] | 5.17 nM
NC(=O)[C@@H]1CCCN1c1cc2c3c(nc(-c4ccc5oc(N)nc5c4)n3CCCO2)c1F [Example 194, (S)-1-(1-(2-Aminobenzo[d]oxazol-5-yl)-3-fluoro-8,9-dihydro-7H-6-oxa-2,9a-diazabenzo[cd]azulen-4-yl)pyrrolidine-2-carb oxamide] | 0.026 nM
NC(=O)[C@@H](Nc1cc2c3c(c1)nc(-c1ccnc4c1OCO4)n3CCCO2)C1CC1 [Example 195, (S)-2-((1-([1,3]Dioxolo[4,5-b]pyridin-7-yl)-8,9-dihydro-7H-6-oxa-2,9a-diazabenzo[cd]azulen-4-yl)amino)-2-cyclopropylacetamide] | 194 nM
NC(=O)[C@@H](Nc1cc2c3c(c1)nc(-c1ccc4oc(=O)[nH]c4c1)n3CCCO2)C1CC1 [Example 196, (S)-2-Cyclopropyl-2-((1-(2-oxo-2,3-dihydrobenzo[d]oxazol-5-yl)-8,9-dihydro-7H-6-oxa-2,9a-diazabenzo[cd]azulen-4-yl)amino)acetamide] | 314 nM
NC(=O)[C@@H](Nc1cc2c3c(c1)nc(-c1ccc4nc(Cl)nn4c1)n3CCCO2)C1CC1 [Example 197, (S)-2-((1-(2-Chloro-[1,2,4]triazolo[1,5-a]pyridin-6-yl)-8,9-dihydro-7H-6-oxa-2,9a-diazabenzo[cd]azulen-4-yl)amino)-2-cyclopropylacetamide] | 27.2 nM
